Where “and” joins values, the source holds several entries; their conditions need not be identical. Equal values may be shown once. Marks after values point to notes of the source that are not given here.
Assays:
[1] = Serum pharmacokinetics of intravenous 3-AP; assay type: in vivo, human
[2] = Phase I dose escalation of oral 3-AP: adverse events; assay type: in vivo
[3] = system: advanced stage solid cancers; assay: Tumor response to oral 3-AP; assay type: in vivo, human
[4] = in vivo, po
advanced stage cancers = details: cited from earlier work
[5] = Serum pharmacokinetics and bioavailability of oral 3-AP
[6] = Intravenous Route, 100 mg 2-hour infusion, individual patients
[7] = 200 mg, represented grade 4 toxicity
[8] = adverse events attributed to treatment, 20 patients
[9] = of 20 enrolled patients, all dose levels
[10] = Oral Route, oral dose 50 mg, individual patients
[11] = Oral Route, oral dose 100 mg, individual patients
[12] = Oral Route, oral dose 150 mg, individual patients
[13] = Oral Route, oral dose 200 mg, individual patients

## NC(=S)NN=Cc1ncccc1N [3-AP, 3-aminopyridine-2-carboxaldehyde thiosemicarbazone]
[1]; [6]
  AUC: 8.8 µM·h and 4.8 µM·h and 12.1 µM·h and 14.1 µM·h and 7.0 µM·h and 16.1 µM·h and 25.6 µM·h and 10.2 µM·h and 14.5 µM·h and 8.3 µM·h and 11.3 µM·h and 7.2 µM·h and 5.7 µM·h and 10.0 µM·h
  MRT (mean residence time): 2.4 h and 2.6 h and 3.0 h and 3.5 h and 2.3 h and 2.7 h and 3.1 h
[1]; Intravenous Route, 100 mg 2-hour infusion, serum, individual patients
  Cmax: 2800 nM and 5400 nM and 4700 nM and 6700 nM and 1900 nM and 3700 nM and 2700 nM and 3200 nM and 2900 nM and 2100 nM and 2500 nM
[1]; human, serum, iv, 100 mg
  Tmax: 2 h
[1]; human, serum, iv, 100 mg, AUC, Avg., 100 mg 2-hour infusion, mean
  AUC: 9.5 µM·h
[1]; human, serum, iv, 100 mg, Cmax, Avg., 100 mg 2-hour infusion, mean
  Cmax: 3500 ± 1400 nM
[1]; human, serum, iv, 100 mg, MRT (mean residence time), 100 mg 2-hour infusion, individual patients
  MRT: 2.5 h
[1]; human, serum, iv, 100 mg, MRT, Avg., 100 mg 2-hour infusion, mean
  MRT: 2.8 h
[1]; read-out: Cmax, Avg., Intravenous Route, 100 mg 2-hour infusion, mean
  Cmax: 2800 nM
[2]; [7]
  (AST/SGOT), Grade 3–4: 1 (50) ^* No. of Patients (%)
  Neutropenia, Grade 3–4: 1 (50) ^* No. of Patients (%)
  Thrombocytopenia, Grade 3–4: 1 (50) ^* No. of Patients (%)
[2]; All Gr 3–4, all dose levels
  (AST/SGOT), Grade 3–4: 1 (5) No. of Patients (%)
  Anorexia, Grade 3–4: 1 (5) No. of Patients (%)
  Fatigue, Grade 3–4: 1 (5) No. of Patients (%)
  Hemoglobin (anemia), Grade 3–4: 2 (10) No. of Patients (%)
  Hypertension, Grade 3–4: 1 (5) No. of Patients (%)
  Hypoxia, Grade 3–4: 2 (10) No. of Patients (%)
  Infection, Grade 3–4: 1 (5) No. of Patients (%)
  Neutropenia, Grade 3–4: 4 (20) No. of Patients (%)
  Thrombocytopenia, Grade 3–4: 1 (5) No. of Patients (%)
[2]; [8]
  (AST/SGOT), all grades: 10%
  (AST/SGOT), all grades, No. of Patients: 2
  Alkaline phosphatase, all grades: 10%
  Alkaline phosphatase, all grades, No. of Patients: 2
  Anorexia, all grades: 20%
  Anorexia, all grades, No. of Patients: 4
  Diarrhea, all grades: 5%
  Diarrhea, all grades, No. of Patients: 1
  Fatigue, all grades: 25%
  Fatigue, all grades, No. of Patients: 5
  Headache, all grades: 20%
  Headache, all grades, No. of Patients: 4
  Hemoglobin (anemia), all grades, No. of Patients: 7
  Hemorrhage, all grades, No. of Patients: 1
  Hyperglycemia, all grades: 15%
  Hyperglycemia, all grades, No. of Patients: 3
  Hypertension, all grades: 5/5%
  Hypertension, all grades, No. of Patients: 1/1
  Neutropenia, all grades, No. of Patients: 11
  Thrombocytopenia, all grades, No. of Patients: 6
  Thrombosis, all grades, No. of Patients: 0
  Vomiting, all grades: 15%
  Vomiting, all grades, No. of Patients: 3
[2]; among the 20 patients enrolled
  hematological and infectious adverse events observed, number: 27
[2]; human, in vivo
  Hypokalemia, all grades: 5%
  Hypokalemia, all grades, No. of Patients: 1
  Hypotension, all grades: 5/5%
  Hypotension, all grades, No. of Patients: 1/1
  Hypoxia, all grades: 10%
  Hypoxia, all grades, No. of Patients: 2
  Infection, all grades: 15%
  Infection, all grades, No. of Patients: 3
  Nausea, all grades: 25%
  Nausea, all grades, No. of Patients: 5
[2]; of 20 patients
  Therapy discontinued for adverse events: 40%
[2]; of 20 patients, after a median of 1 cycle
  Therapy discontinued for adverse events, patients: 8
[2]; oral 50 mg every 12 Hrs.
  DLT Description: grade 3 hypertension
[2]; oral 150 mg every 12 Hrs.
  DLT Description: grade 4 febrile neutropenia
[2]; oral 200 mg every 12 Hrs.
  DLT Description: grade 3 hypoxia
[2]; oral vs intravenous route
  MTD by the oral route higher than by the intravenous route: 33%
[2]; per dose, every 12 hours for 5 doses on days 1–3, 8–10, 15–17 of each 28-day cycle
  maximum tolerated dose (MTD) of oral 3-AP: 150 mg
[3]; in vivo
  median duration of stable disease response: 2 months
[3]; [9]
  Stable disease as the best response: 25%
  Stable disease as the best response, patients: 5
[3]; of 20 patients
  Therapy discontinued for disease progression: 50%
  progressive disease confirmed while on study, patients: 10
[3]; of 20 patients, after a median of 2 cycles
  Therapy discontinued for disease progression, patients: 10
[3]; one patient with pancreatic adenocarcinoma
  longest progression-free interval: 15 months
[3]; treated population with advanced solid tumors
  clinical benefit rate: 25%
[4]; human
  CL/F, Avg.: 0.017 L/h
[4]
  exposure of orally administered 3-AP versus dose: increased in a dose dependent manner
Advanced stage cancers; phase 1, radiation, cisplatin and three-times weekly intravenous 3-AP 25 mg/m^2, advanced stage cervical cancer, 10 of 10 women
  durable 18-month complete pelvic tumor response rate: 100%
Advanced stage cancers; phase I, intravenous 3-AP in combination with gemcitabine, after 4 months of treatment
  patients with at least stable disease as a best response: 42%
Advanced stage cancers; phase II, intravenous 3-AP and gemcitabine, relapsed nonsmall cell lung cancer
  stable disease rate: 20%
[5]; [10]
  AUC: 5.2 µM·h and 1.9 µM·h and 3.5 µM·h and 1.6 µM·h and 1.4 µM·h and 4.1 µM·h
  Cmax: 1500 nM and 900 nM and 500 nM and 1100 nM
  MRT: 2.6 h and 3.0 h and 3.4 h
  Tmax: 3.0 h and 0.8 h and 1.0 h and 1.3 h
[5]; [11]
  AUC: 6.5 µM·h and 2.3 µM·h
  Cmax: 2500 nM
  MRT: 3.0 h
[5]; [12]
  AUC: 8.0 µM·h and 21.7 µM·h and 4.3 µM·h and 8.5 µM·h
  Cmax: 5900 nM and 1600 nM and 10100 nM
  MRT: 3.5 h and 1.7 h and 5.4 h and 3.3 h
  Tmax: 0.8 h and 6.0 h
[5]; [13]
  AUC: 56.0 µM·h and 19.5 µM·h
  Cmax: 800 nM and 4600 nM
  MRT: 3.9 h
  Tmax: 3.0 h
[5]; human, serum, po
  bioavailability: 67 ± 29%
[5]; human, serum, po, 50 mg, MRT, oral dose 50 mg, individual patients
  MRT: 4.2 h
[5]; human, serum, po, 100 mg, MRT, oral dose 100 mg, individual patients
  MRT: 2.8 h
[5]; human, serum, po, 150 mg, AUC, Avg., average for patients receiving an oral dose of 150 mg
  AUC: 10.6 µM·h
[5]; human, serum, po, 150 mg, Cmax, Avg., average for patients receiving an oral dose of 150 mg
  Cmax: 5000 nM
[5]; human, serum, po, 200 mg, MRT, oral dose 200 mg, individual patients
  MRT: 2.5 h
[5]; human, serum, po, MRT, Avg., mean across dose levels
  MRT: 3.2 h
[5]; human, serum, po, Tmax, Avg., mean across dose levels
  Tmax: 1.9 h

Reference: publication PMC3288125 (Cancer Chemotherapy and Pharmacology, 2011)
